US9394266B2, “Solid state forms of cabazitaxel and processes for preparation thereof” (IVAX International GmbH, priority 2012, dated 2016)

Experiment: Hygroscopicity test: exposure to controlled relative humidity, XRPD and Karl-Fischer water content before and after
Assay type: physicochemical
Details: about room temperature; for conversion to another solid state form of Cabazitaxel (polymorphic stability): normal atmospheric humidity, 60%, 80% and 100% RH, two days exposure; for hygroscopicity: various relative humidity conditions
Method: Hygroscopicity Test Procedure:
About 150 mg of a sample was placed to a cell with controlled relative humidity. The samples were exposed to 60%, 80% and 100% relative humidity for a period of two days. XRPD analysis and water content by coulometric Karl-Fischer titration were carried out before and after the exposure to the defined relative humidity. Coulometric Karl-Fischer Titration: Water was determined by KF Oven method (832 KF Thermoprep connected to 831 KF Coulometer). Water from the sample (50 mg of cabazitaxel) was released by nitrogen stream at 130° C. Extraction time was 10 minutes.

hygroscopicity	Structure (SMILES)	conversion to another solid state form of Cabazitaxel (polymorphic stability)
low-hygroscopicity form	CO[C@H]1C(=O)[C@]2(C)[C@@H](OC)C[C@H]3OC[C@@]3(OC(C)=O)[C@H]2[C@H](OC(=O)c2ccccc2)[C@]2(O)C[C@H](OC(=O)[C@H](O)[C@@H](NC(=O)OC(C)(C)C)c3ccccc3)C(C)=C1C2(C)C [Form VII, Cabazitaxel ethyl acetate solvate]	does not convert to any other form of Cabazitaxel
low-hygroscopicity form	CO[C@H]1C(=O)[C@]2(C)[C@@H](OC)C[C@H]3OC[C@@]3(OC(C)=O)[C@H]2[C@H](OC(=O)c2ccccc2)[C@]2(O)C[C@H](OC(=O)[C@H](O)[C@@H](NC(=O)OC(C)(C)C)c3ccccc3)C(C)=C1C2(C)C [Form X, Cabazitaxel methyl isobutyl ketone solvate]	does not convert to any other forms of Cabazitaxel
–	CO[C@H]1C(=O)[C@]2(C)[C@@H](OC)C[C@H]3OC[C@@]3(OC(C)=O)[C@H]2[C@H](OC(=O)c2ccccc2)[C@]2(O)C[C@H](OC(=O)[C@H](O)[C@@H](NC(=O)OC(C)(C)C)c3ccccc3)C(C)=C1C2(C)C [acetone solvate, Cabazitaxel acetone solvate, reference compound]	already transform to the anhydrous form B after two days
